Assay results published in patent publication US12138625B2, “Screening kit and method” (CELLPLY S.R.L., priority 2016, dated 2024).

Assays:
[1] = tested on: SU-DHL-4 cancer cells; assay: open well assay of Rituximab on SU-DHL-4 lymphoma cells (Calcein-AM / PI, time-lapse); format: cell-based; details: Rituximab 10 μg/mL, human serum 1%, PI 5 μM; versus CTRL; FIG. 11A
Description: Cells: SU-DHL-4 lymphoma cells and Raji cells were used (ATCC CCL-86). 3·10^5 cells/mL were cultured in RPMI medium supplemented with 10% FBS, 1% […]/streptomycin at 37° C., 95% RH, 5% CO2. The cells were amplified, dividing them when in confluence. PBMC were isolated from blood by centrifugation in gradient. Whole blood from healthy donors was collected into tubes treated with anticoagulants according to the directive “ethical principles and guidelines for the protection of humans in research”. Isolated PBMC were washed twice with 10 mL cold HBSS after lysis of red blood cells. The concentration of cells and their viability was determined with Trypan Blue on haemocytometer. The concentration was adjusted to 1 million cells/mL.
Different batches of SU-DHL-4 or Raji cells were harvested at the peak of their growth, washed with PBS and counted in a hemocytometer with Trypan Blue. The cell concentration was adjusted to 1 million cells/mL and they were labeled with Calcein AM (CAM) 5 nM for flow cytometry and 250 nM for the assay according to the present invention. […] Cell viability was finally assessed by PI and flow cytometry. […]
The images were acquired in brightfield (BF) to evaluate the morphological characteristics and then in fluorescence to evaluate the signal in DAPI bands (ex: 360/40 nm, em: 460/50 nm), FITC (ex: 480/30 nm, em: 535/40 nm), TRITC (ex: 540/25 nm, em: 605/55 nm). […]

[2] = tested on: Jurkat cells; assay: calcium signal (Fluo-4) of Jurkat cells after stimulation in open microwells; format: cell-based, human; details: Fluo-4 fluorescence, OKT3 10 μg/mL, average of a series of 3 experiments
Description: Cells from the Jurkat cell line (human Leukemic T cells) were obtained from ATCC and cultured in RPMI 1640 medium supplemented with 10% inactivated FBS medium, 10 mM Hepes, 2 mM Ultraglutamine and 1 mM sodium pyruvate, 1% Penicillin/Streptomycin in 25 cm^2 flasks at 37° C. and 5% CO2.
The OKT3 hybridomas were cultured in bioreactors (CellLine, Integra Biosciences) in complete RPMI 1640 medium containing 3% FBS and the supernatant was collected 2 times a week. The purification of monoclonal antibodies was performed using a double saturated ammonium sulfate precipitation at 30% and 50%, followed by dialysis in PBS. The purity of OKT3 was assessed by SDS-PAGE gel and the amount of antibody was determined through NanoDrop (Thermo Scientific). The antibody was then frozen at −80° C. before use.
For the assay in open microwells according to the present invention, Jurkat cells were labeled with Fluo-4 20 μM in HBSS, centrifuged and resuspended in serum-free medium (RPMI 1640 with 25 mM Hepes or HBSS) at a concentration of 1.6×10^6 cells/mL in 1.5 mL Eppendorf tubes used as input reservoirs for the open reversed microwell system. […] The images were acquired by a camera connected to the microscope at a distance of 1 minute and processed by software developed in LabView, quantifying the dynamic performance of the same signal on each sample cell.

RTX: monoclonal antibody Rituximab
dead cells (PI, TRITC channel) in time-lapse images [1]: present only at T2 and T3 in the RTX group

OKT3: monoclonal antibody purified from OKT3 hybridoma supernatant
increase of the signal peak, compared to the baseline value [2]: 178%+/−90%
